Ki data for one molecule are collected here from BindingDB's records for doi:10.1021/jm00155a029 (1986).

This assay can be described thus: Compound was tested for the inhibitory effect against Gamma-amino-N-butyrate transaminase from bacteria.

The molecule `NC/C=C(\CF)C(=O)O` [(2Z)-4-ammonio-2-(fluoromethyl)but-2-enoate] had a Ki of 9 µM.

A word on the Ki: it is a measure of affinity in units of concentration, obtained from inhibition or displacement. A high value points to lower affinity.
